The results in this text go back to ChEMBL document CHEMBL1201862, “PubChem BioAssay data set” (2004).

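Five concentrations, 48 hours, 96-well plates. Abbreviation: GI50, concentration required for 50% inhibition of growth.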 Active and inactive are the calls of the source. Rule as the data show it: active = GI50 up to about 1.1 µM and inactive = higher. Where only a bound is given, the exact number is not on record here.

Test systems include LOX IMVI; NCI-H460; HCT-116; HCT-15; Malme-3M; UACC-257; SW-620; KM12; HOP-62; ACHN; SK-MEL-28; NCI-H23; U-251; OVCAR-3; HL-60; RPMI-8226; SR; SF-295.
Test in all cases: growth of human tumour cells (NCI), 48 h

In the case of `C=C[C@@]1(C)CCC2(O)C(CCC3C2(C)CCC[C@@]3(C)COC(=O)CC(=O)OC)C1` (some centres not stated), the GI50 in the test on LOX IMVI was 16.5 µM (inactive); in the test on NCI-H460, 34.3 µM (inactive); in the test on HCT-116, 18 µM (inactive); with HCT-15, 18.4 µM; in the test on Malme-3M it was 17.7 µM (inactive); in the test on UACC-257, 20.2 µM (inactive). For the same compound, the GI50 in the test with SW-620 is 17.6 µM (inactive); in the test with KM12 it was 18.1 µM (inactive); with HOP-62, 18.5 µM (inactive); in the test on ACHN, 40.1 µM (inactive); with SK-MEL-28, 17 µM (inactive); with NCI-H23, 20.6 µM (inactive). Further, the GI50 in the test on U-251 was 17.9 µM (inactive); with OVCAR-3, 17.3 µM (inactive); in the test on HL-60, 19.2 µM (inactive); in the test with RPMI-8226 it was 19.8 µM (inactive); with SR, 22.2 µM (inactive).

For `CCCCCCCCC(=O)CCCCCCCCC(=O)O`, the GI50 in the test on LOX IMVI is 14.8 µM (inactive); in the test on NCI-H460 it was 21.3 µM (inactive); in the test on HCT-116 it was 21.6 µM (inactive); in the test on Malme-3M it was 31.3 µM (inactive); in the test with UACC-257, > 100 µM (inactive); with SW-620, 39.7 µM (inactive). The GI50 in the test on KM12 was 17.3 µM (inactive); in the test with HOP-62, 26.9 µM (inactive); with ACHN it was 25.3 µM (inactive); with SK-MEL-28 it was 36.1 µM (inactive); with NCI-H23, 30.3 µM (inactive); in the test on U-251 it was 25.1 µM (inactive). The GI50 in the test on SF-295 was 26.4 µM (inactive); in the test with OVCAR-3 it was 18.8 µM (inactive); in the test on HL-60 it was 4.09 µM (inactive); in the test on RPMI-8226, 16.7 µM (inactive); in the test on SR, 16.2 µM (inactive).

On to `CN(C)CC(=O)N1CCc2c([nH]c3ccccc23)C1c1cccnc1` (configuration not stated), for which the GI50 is > 100 µM (inactive) in the test with LOX IMVI; > 100 µM (inactive) in the test with NCI-H460; > 100 µM (inactive) in the test with HCT-116; more than 100 µM with HCT-15; > 100 µM (inactive) with UACC-257; > 100 µM (inactive) in the test with SW-620. Besides, the GI50 with KM12, in the test on HOP-62, in the test on ACHN, in the test with SK-MEL-28, in the test with NCI-H23 and in the test with U-251 was > 100 µM (inactive) in each case. Moreover, the GI50 in the test with SF-295 is 0.0498 µM (active); in the test with OVCAR-3, > 100 µM (inactive); with HL-60 it was > 100 µM (inactive); in the test on RPMI-8226, > 100 µM (inactive); in the test on SR, > 100 µM (inactive).

Turning to `Nc1ccc2c(c1)CC1c3ccccc3C(C2)c2ccccc21`, the GI50 with LOX IMVI is > 100 µM (inactive); in the test on NCI-H460, > 100 µM (inactive); with HCT-116 it was > 100 µM (inactive); in the test with HCT-15, more than 100 µM; in the test with Malme-3M, > 100 µM (inactive); with UACC-257 it was > 100 µM (inactive). In addition, the GI50 in the test on SW-620, in the test on KM12, in the test on HOP-62, in the test with ACHN, with U-251 and with SF-295 was > 100 µM (inactive) throughout. Further, the GI50 with HL-60 is > 100 µM (inactive); in the test with RPMI-8226, 34.6 µM (inactive); in the test on SR, 9.68 µM (inactive).

`O=Cc1cc2sc(C=O)cc2s1`: the GI50 is > 100 µM (inactive) in the test with LOX IMVI; > 100 µM (inactive) in the test on NCI-H460; > 100 µM (inactive) in the test on HCT-116; more than 100 µM in the test with HCT-15; > 100 µM (inactive) in the test with Malme-3M; > 100 µM (inactive) in the test with UACC-257. Besides, the GI50 in the test with SW-620, in the test on KM12, in the test on HOP-62, with NCI-H23, in the test on U-251 and in the test on SF-295 was > 100 µM (inactive) each time. The GI50 in the test on OVCAR-3, with HL-60, in the test on RPMI-8226 and with SR was > 100 µM (inactive) in each case.
